Test results as given in patent US20220315594A1, “METHOD OF SYNTHESIS OF COMPOUND FOR DUAL INHIBITION OF JAK2 AND BET” (OHM ONCOLOGY, priority 2019, published 2022).

Experiments:
Settings in all cases: qualitative statement
BRD4 BD1 = BRD4 BD1 (Homo sapiens, UniProt O60885); assay: In vitro biochemical assay, BRD4 BD1 inhibition
BRD4 BD2 = BRD4 BD2 (Homo sapiens, UniProt O60885); assay: In vitro biochemical assay, BRD4 BD2 inhibition
JAK2 = JAK2 (Homo sapiens, UniProt O60674); assay: In vitro biochemical assay, JAK2 inhibition
[1] = tested on: multiple liquid cancer cell lines; assay: Anti-proliferative activity against liquid cancer cell lines; type: cell-based
cMYC expression = cMYC expression down-regulation; type: cell-based
JAK2 signaling = JAK2 signaling down-regulation; type: cell-based

Chain of JAK2 (O60674 whole entry): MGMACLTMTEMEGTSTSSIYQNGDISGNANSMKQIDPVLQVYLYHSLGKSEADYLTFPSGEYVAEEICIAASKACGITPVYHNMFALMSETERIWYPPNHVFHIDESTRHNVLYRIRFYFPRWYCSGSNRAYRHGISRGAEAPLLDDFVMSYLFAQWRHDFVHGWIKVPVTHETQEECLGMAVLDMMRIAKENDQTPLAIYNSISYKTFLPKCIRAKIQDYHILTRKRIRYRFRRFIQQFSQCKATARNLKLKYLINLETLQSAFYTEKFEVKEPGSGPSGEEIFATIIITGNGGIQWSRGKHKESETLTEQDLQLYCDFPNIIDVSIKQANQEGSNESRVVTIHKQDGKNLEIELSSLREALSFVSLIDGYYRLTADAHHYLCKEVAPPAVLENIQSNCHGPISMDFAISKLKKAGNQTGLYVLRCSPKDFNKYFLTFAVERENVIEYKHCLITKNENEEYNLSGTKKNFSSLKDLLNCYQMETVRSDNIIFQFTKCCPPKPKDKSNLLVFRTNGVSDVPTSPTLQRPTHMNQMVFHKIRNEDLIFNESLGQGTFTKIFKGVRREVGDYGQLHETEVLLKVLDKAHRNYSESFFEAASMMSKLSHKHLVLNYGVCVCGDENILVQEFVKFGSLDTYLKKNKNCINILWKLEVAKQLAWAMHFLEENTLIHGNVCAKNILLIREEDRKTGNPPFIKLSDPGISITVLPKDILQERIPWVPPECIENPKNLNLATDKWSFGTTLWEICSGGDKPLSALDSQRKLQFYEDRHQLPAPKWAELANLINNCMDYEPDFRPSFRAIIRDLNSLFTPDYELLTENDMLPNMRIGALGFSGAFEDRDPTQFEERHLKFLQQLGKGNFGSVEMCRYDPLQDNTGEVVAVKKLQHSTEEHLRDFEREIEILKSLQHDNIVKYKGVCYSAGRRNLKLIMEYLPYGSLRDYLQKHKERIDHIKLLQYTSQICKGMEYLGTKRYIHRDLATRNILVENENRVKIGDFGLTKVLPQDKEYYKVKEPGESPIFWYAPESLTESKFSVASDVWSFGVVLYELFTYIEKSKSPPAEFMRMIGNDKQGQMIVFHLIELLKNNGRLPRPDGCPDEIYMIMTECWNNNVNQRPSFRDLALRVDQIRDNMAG

inhibition of BRD4 BD1 (BRD4 BD1): inhibit | inhibition of BRD4 BD2 (BRD4 BD2): inhibit | inhibition of JAK2 (JAK2): inhibit
SMILES: CN(C)C1CCN(c2ccc(Nc3ncc4ccn(-c5cccc(NS(=O)(=O)C(C)(C)C)c5)c4n3)cc2F)CC1 [OHM-581, N-(3-(2-((4-(4-(dimethylamino)piperidin-1-yl)-3-fluorophenyl)amino)-7H-pyrrolo[2,3-d]pyrimidin-7-yl)phenyl)-2-methylpropane-2-sulfonamide]
anti-proliferative activity [1]: significant anti-proliferative activity | cMYC expression (cMYC expression): robustly down-regulates | JAK2 signaling (JAK2 signaling): robustly down-regulates
